Test results: ChEMBL document CHEMBL4613243, “Calosides A-F, Cardenolides from Calotropis gigantea and Their Cytotoxic Activity” (J Nat Prod, 2020)
The source made the active and inactive calls. The calls are words filed in the database; no cut-off is given here.

Experiments:
[1] = system: HeLa; experiment: Antiproliferative activity against human HeLa cells assessed as reduction in cell viability after 72 hrs by WST-8 assay; type: functional, cell-based
[2] = system: PANC-1; experiment: Antiproliferative activity against human PANC1 cells assessed as reduction in cell viability after 72 hrs by WST-8 assay; type: functional, cell-based; conditions: PANC-1, 72 h
[3] = system: PANC-1; experiment: Cytotoxicity against human PANC1 cells assessed as reduction in cell viability at 0.78 uM after 74 hrs by crystal violet staining based assay; type: functional
[4] = system: PANC-1; experiment: Cytotoxicity against human PANC1 cells assessed as reduction in cell viability at 0.05 to 100 uM after 74 hrs by crystal violet staining based assay; type: functional

SMILES	IC50 [1] [µM]	IC50 [2] [µM]	Activity [3] [%]	Activity [4]
C[C@H]1O[C@@H](O[C@@H]2CC[C@@]34CO[C@@]5(CC[C@@H]3C2)[C@@H]4CC[C@]2(C)[C@H](C3=CC(=O)OC3)CC[C@@H]25)[C@H](O)[C@H](O)[C@@H]1O	> 10	4.6		
C[C@]12CC[C@H]3[C@@H](CC[C@@H]4C[C@H](O[C@@H]5O[C@H](CO)[C@@H](O)[C@@H](O[C@H]6O[C@H](CO)[C@@H](O)[C@H](O)[C@H]6O)[C@H]5O)CC[C@@]43CO)[C@@]1(O)CC[C@@H]2C1=CC(=O)OC1	0.17	0.08	100	
C[C@]12CC[C@H]3[C@@H](CC[C@@H]4C[C@H](O[C@@H]5O[C@H](CO)[C@@H](O)[C@@H](O)[C@H]5O)CC[C@@]43CO)[C@@]1(O)CC[C@@H]2C1=CC(=O)OC1	0.56	0.28		
C[C@]12CC[C@H]3[C@@H](CC[C@@H]4C[C@@H](O[C@@H]5O[C@H](CO)[C@@H](O)[C@@H](O)[C@H]5O)CC[C@@]43C=O)[C@@]1(O)CC[C@@H]2C1=CC(=O)OC1	0.38	0.15		
Nc1ccn([C@@H]2O[C@H](CO)[C@@H](O)C2(F)F)c(=O)n1 [GEMCITABINE]		5.9		inactive
C[C@H]1C[C@@](O)(CC(=O)O)[C@]2(O)O[C@@H]3C[C@@]4(C=O)[C@@H](CC[C@@H]5[C@@H]4CC[C@]4(C)[C@@H](C6=CC(=O)OC6)CC[C@]54O)C[C@H]3O[C@H]2O1	1.6	1		
COC(=O)[C@@]1(C)C[C@@H](C)O[C@H]1O[C@@H]1C[C@H]2CC[C@@H]3[C@H](CC[C@]4(C)[C@@H](C5=CC(=O)OC5)C[C@@H](O)[C@]34O)[C@@]2(C(=O)O)C[C@H]1O	> 10	5.2		
C[C@@H]1C[C@H](O)[C@]2(O)O[C@@H]3C[C@@]4(C=O)[C@@H](CC[C@@H]5[C@@H]4CC[C@]4(C)[C@@H](C6=CC(=O)OC6)CC[C@]54O)C[C@H]3O[C@@H]2O1 [CALOTROPIN]	> 10	> 10		
C[C@]12CC[C@H]3[C@@H](CC[C@@H]4C[C@@H](O)[C@H](O)C[C@@]43CO)[C@@]1(O)CC[C@@H]2C1=CC(=O)OC1	> 10	5.1		
C[C@]12CC[C@H]3[C@@H](CC[C@@H]4C[C@@H](O)[C@H](O)C[C@@]43C=O)[C@@]1(O)[C@H](O)C[C@@H]2C1=CC(=O)OC1	> 10	> 10		
C[C@]12CC[C@H]3[C@@H](CC[C@@H]4C[C@H](O[C@@H]5O[C@H](CO)[C@@H](O)[C@@H](O)[C@H]5O)CC[C@@]43COC=O)[C@@]1(O)CC[C@@H]2C1=CC(=O)OC1	0.67	0.25		
C[C@]12CC[C@H]3[C@@H](CC[C@@H]4C[C@H](O[C@@H]5O[C@H](CO)[C@@H](O)[C@H](O[C@H]6O[C@H](CO)[C@@H](O)[C@H](O)[C@H]6O)[C@H]5O)CC[C@@]43CO)[C@@]1(O)CC[C@@H]2C1=CC(=O)OC1	0.17	0.07	100	
